Reference: the supplement of paper PMC10307832

Tests used:
Assay in all cases: relative viability (nuclei count vs DMSO), 5 days (fraction); higher = more cells survive
[1] = compound: COc1cccc2cc(-c3nc([C@H]4CC[C@H](C(=O)O)CC4)n4ncnc(N)c34)[nH]c12 [OSI-027] + O=C(CCCCCCC(=O)Nc1ccccc1)NO [Vorinostat] (partner 1 µM)
Outline: (§1)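 Lung cancer cell lines were seeded in 1536-well plates and dosed by pin tool the next day, with either a single drug or a fixed anchor-drug dose combined with five library-drug doses (not always all listed) spaced in √10 steps. Five days later, one step fixed the cells and stained their nuclei (final 0.05% Triton X-100, 1% formaldehyde, 1 ug/ml Hoechst), and nuclei were counted on 4× images. Relative viability is the nuclei count in treated wells divided by the count in vehicle wells, and each value is the median of duplicate plates.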

[2] = compound: COc1cccc2cc(-c3nc([C@H]4CC[C@H](C(=O)O)CC4)n4ncnc(N)c34)[nH]c12 [OSI-027] + C[C@@H](Oc1cc(-c2cnn(C3CCNCC3)c2)cnc1N)c1c(Cl)ccc(F)c1Cl [Crizotinib] (partner 1 µM)
Outline: as §1

[3] = compound: CCCS(=O)(=O)Nc1ccc(F)c(C(=O)c2c[nH]c3ncc(-c4ccc(Cl)cc4)cc23)c1F [Vemurafenib] + CC1(C)CCC(c2ccc(Cl)cc2)=C(CN2CCN(c3ccc(C(=O)NS(=O)(=O)c4ccc(N[C@H](CCN5CCOCC5)CSc5ccccc5)c(S(=O)(=O)C(F)(F)F)c4)cc3)CC2)C1 [Navitoclax] (partner 0.5 µM)
Outline: as §1

[4] = compound: Cc1nc(NC(=O)N2CCC[C@H]2C(N)=O)sc1-c1ccnc(C(C)(C)C(F)(F)F)c1 [Alpelisib] + CCNC(=O)c1noc(-c2cc(C(C)C)c(O)cc2O)c1-c1ccc(CN2CCOCC2)cc1 [Luminespib] (partner 0.01 µM)
Outline: as §1

| Cell Line | relative viability ([1]; first compound 0.01 µM) | relative viability ([1]; first compound 0.03162 µM) | relative viability ([1]; first compound 0.1 µM) | relative viability ([1]; first compound 0.3162 µM) | relative viability ([1]; first compound 1 µM) | relative viability ([2]; first compound 0.01 µM) | relative viability ([2]; first compound 0.03162 µM) | relative viability ([2]; first compound 0.1 µM) | relative viability ([2]; first compound 0.3162 µM) | relative viability ([2]; first compound 1 µM) | relative viability ([3]; first compound 0.03162 µM) | relative viability ([3]; first compound 0.1 µM) | relative viability ([3]; first compound 0.3162 µM) | relative viability ([3]; first compound 1 µM) | relative viability ([4]; first compound 0.04 µM) | relative viability ([4]; first compound 0.1265 µM) | relative viability ([4]; first compound 0.4 µM) | relative viability ([4]; first compound 1.265 µM) | relative viability ([4]; first compound 4 µM) |
| --- | --- | --- | --- | --- | --- | --- | --- | --- | --- | --- | --- | --- | --- | --- | --- | --- | --- | --- | --- |
| IA-LM | 0.997 | 0.388 | 0.652 | 0.479 | 0.15 | 0.96 | 0.578 | 0.78 | 0.249 | 0.139 | 0.643 | 0.806 | 0.794 | 0.665 |  |  |  |  |  |
| NCI-H1650 | 0.56 | 0.515 | 0.532 | 0.407 | 0.358 | 1.13 | 0.999 | 0.886 | 1.2 | 0.531 | 1.12 |  | 1.18 | 1.15 | 0.208 | 0.192 | 0.24 | 0.19 | 0.18 |
| NCI-H322M | 0.869 | 0.863 | 0.748 | 0.663 | 0.624 | 0.86 | 0.929 | 0.951 | 0.947 | 0.775 | 1.09 |  | 1.44 | 1.1 | 0.795 | 0.737 | 0.789 | 0.45 | 0.39 |
| SW 1573 | 0.818 | 0.718 | 0.669 | 0.728 | 0.393 | 0.855 | 0.832 | 0.687 | 0.655 | 0.566 | 0.927 | 1.12 | 1.09 | 0.934 | 0.175 | 0.215 | 0.285 | 0.198 | 0.115 |
| HCC-827 | 0.61 | 0.851 | 0.768 | 0.852 | 0.475 | 0.924 | 0.969 | 0.915 | 1.01 | 0.649 | 0.967 |  | 1 | 1.02 | 0.703 | 0.594 | 0.586 | 0.406 | 0.215 |
| LU99A | 0.491 | 0.667 | 0.396 | 0.304 | 0.232 | 0.522 | 0.522 | 0.46 | 0.313 | 0.208 | 0.714 | 0.752 | 0.869 | 0.796 | 0.298 | 0.216 | 0.249 | 0.226 | 0.247 |
| LK-2 | 0.272 | 0.296 | 0.244 | 0.176 | 0.179 | 0.199 | 0.229 | 0.273 | 0.242 | 0.203 | 0.736 | 0.963 | 0.753 | 0.529 | 0.139 | 0.159 | 0.196 | 0.191 | 0.176 |
| EMC-BAC-2 | 0.333 | 0.498 | 0.299 | 0.236 | 0.277 | 0.752 | 0.786 | 0.737 | 0.683 | 0.416 | 1.15 | 1.01 | 1.17 | 1.14 | 1.24 | 1.03 | 1.16 | 0.932 | 0.707 |
| NCI-H2342 | 0.715 | 0.611 | 0.683 | 0.768 | 0.547 |  |  |  |  |  |  |  |  |  | 0.762 | 0.696 | 0.686 | 0.568 | 0.488 |
| NCI-H460 | 1.06 | 0.594 | 0.685 | 0.65 | 0.219 | 0.888 | 0.714 | 1.06 | 0.759 | 0.184 | 1.17 | 1.14 | 1.02 | 1.07 | 0.0253 | 0.0415 | 0.0319 | 0.0281 | 0.0206 |
| NCI-H441 | 0.837 | 0.77 | 0.757 | 0.741 | 0.431 | 0.679 | 0.613 | 0.633 | 0.604 | 0.338 | 0.798 | 0.614 |  | 0.735 | 0.395 | 0.324 | 0.333 | 0.272 | 0.312 |
| NCI-H661 | 0.806 | 0.801 | 0.759 | 0.717 | 0.458 | 0.998 | 1.1 | 1.14 | 1.15 | 0.645 |  |  |  |  | 0.979 | 0.969 | 1.02 | 0.928 | 0.968 |
| NCI-H727 | 1.08 | 1.06 | 1.11 | 1.23 | 1.03 | 0.626 | 0.862 | 0.798 | 0.655 | 0.517 | 0.518 | 0.366 | 0.613 | 0.438 | 0.419 | 0.444 | 0.3 | 0.371 | 0.345 |
| NCI-H1651 | 0.57 | 0.482 | 0.509 | 0.528 | 0.469 | 0.878 | 0.801 | 0.841 | 0.816 | 0.635 | 1.02 | 0.976 | 1.07 | 0.93 | 0.78 | 1.05 | 1 | 0.78 | 0.666 |
| NCI-H1355 | 0.648 | 0.632 | 0.622 | 0.475 | 0.3 | 0.969 | 0.937 | 0.998 | 0.847 | 0.276 | 0.895 | 0.96 | 0.99 | 0.976 | 0.679 | 0.575 | 0.83 | 0.608 | 0.514 |
| NCI-H1793 | 0.713 | 0.777 | 0.444 | 0.377 | 0.281 |  |  |  |  |  | 0.389 |  | 0.361 | 0.454 | 0.194 | 0.177 | 0.154 | 0.165 | 0.179 |
| NCI-H1666 | 0.993 | 1.02 | 1.01 | 0.915 | 0.667 | 1 | 1.09 | 0.754 | 0.76 | 0.524 | 0.932 |  | 1.06 | 0.972 | 0.973 | 1.03 | 1.12 | 0.921 | 0.965 |
| NCI-H838 | 0.65 | 0.646 | 0.632 | 0.55 | 0.459 | 0.803 | 0.696 | 0.599 | 0.447 | 0.367 | 1.07 | 1.21 |  | 1.27 | 0.429 | 0.387 | 0.274 | 0.221 | 0.299 |
